Assay results from patent US5175100A, “Stereospecific resolution by hydrolysis of esters of 2-arylpropionic acids by liver enzymes” (Rhone-Poulenc, Inc., priority 1991, dated 1992).

Assays:
Assay type in all cases: biochemical
[1] = tested on: Liver acetone powder from Dog; experiment: Hydrolysis of ketoprofen esters by dog liver acetone powder
Description: (§1) A solution of 50 mg of ketoprofen methyl ester in 0.2 ml of ethanol was added to 10 mg of each of liver acetone powder from various animal sources (described in Table 1) in 5 ml of 0.1M potassium phosphate buffer (pH 7.0) After shaking at room temperature for 24 hours, the reaction mixtures were acidified to pH 2.0 with 6(N) HCl and extracted with 10 ml of ethyl acetate. A portion of the ethyl acetate extract was analyzed by HPLC on a Partisil 5 ODS-3 RAC column (9.4 mm×100 mm, Whatman) using a mixture of methanol and 10 mM ammonium dihydrogen phospate (9:1) and monitored by UV at 254 nm to determine the percentages of acid produced in the reaction.
(§2) To determine the percentage of R- and S-acid, a portion of the ethyl acetate extract was converted to the amide derivative of the acid produced with R(+)-1-phenylethylamine as follows. The ethyl acetate extract (5 ml) was dried over sodium sulfate, filtered and cooled to 0° C. To the cold solution was added 0.2 ml of N-methylmorpholine followed by 0.2 ml of isobutyl chloroformate. After gentle shaking at 0° C. for 10 minutes, 0.2 ml of R(+)-1-phenylethylamine was added and the shaking was continued at 0° C. for 5 minutes and at room temperature for another 5 minutes. The reaction mixture was washed successively with water (5 ml), 1(N) HCl (5 ml), and water (5 ml) to provide the amide derivative in ethyl acetate solution. The ethyl acetate solution of the amide derivative was then analyzed by HPLC on the same column and same solvent mixture but with a different composition, i.e., a ratio of 6:4, and monitored by UV to determine the percentages of R- acid and S-acids produced by hydrolysis. The enantiomeric excess (EE) is defined as the difference in percent between the percent R- acid and the percent S-acid, the higher enantiomer being reported in the parenthesis in Table I.
(§3) Several esters of ketoprofen (0.2 millimole) with various alkyl groups of varying chain length were hydrolyzed using liver acetone powders from bovine, calf and dog by the procedure described in Example 1. The reaction mixtures were analyzed by the same procedures as described in Example 1 and the results obtained are summarized in Table II.

[2] = tested on: Liver acetone powder from Calf; experiment: Hydrolysis of ketoprofen esters by calf liver acetone powder
Description: as §1, §2, §3

[3] = tested on: Liver acetone powder from Bovine; experiment: Hydrolysis of ketoprofen esters by bovine liver acetone powder
Description: as §1, §2, §3

[4] = tested on: Liver acetone powder from Pigeon; experiment: Hydrolysis of ketoprofen methyl ester by pigeon liver acetone powder
Description: as §1, §2

[5] = tested on: Liver acetone powder from Cat; experiment: Hydrolysis of ketoprofen methyl ester by cat liver acetone powder
Description: as §1, §2

[6] = tested on: Liver acetone powder from Horse; experiment: Hydrolysis of ketoprofen methyl ester by horse liver acetone powder
Description: as §1, §2

[7] = tested on: Liver acetone powder from Goat; experiment: Hydrolysis of ketoprofen methyl ester by goat liver acetone powder
Description: as §1, §2

[8] = tested on: Liver acetone powder from Sheep; experiment: Hydrolysis of ketoprofen methyl ester by sheep liver acetone powder
Description: as §1, §2

[9] = tested on: Liver acetone powder from Seal; experiment: Hydrolysis of ketoprofen methyl ester by seal liver acetone powder
Description: as §1, §2

[10] = tested on: Liver acetone powder from Mouse; experiment: Hydrolysis of ketoprofen methyl ester by mouse liver acetone powder
Description: as §1, §2

[11] = tested on: Liver acetone powder from Lungfish; experiment: Hydrolysis of ketoprofen methyl ester by lungfish liver acetone powder; settings: Lungfish powder 10 mg, 50 mg ester, pH 7.0, room temperature, 24 hours
Description: as §1

[12] = tested on: Liver acetone powder from Eel*; experiment: Hydrolysis of ketoprofen methyl ester by eel (Anguilla anguilla) liver acetone powder; settings: Eel (Anguilla anguilla) powder 10 mg, 50 mg ester, pH 7.0, room temperature, 24 hours
Description: as §1

[13] = tested on: Liver acetone powder from Eel**; experiment: Hydrolysis of ketoprofen methyl ester by eel (Electrophorous electricus) liver acetone powder; settings: Eel (Electrophorous electricus) powder 10 mg, 50 mg ester, pH 7.0, room temperature, 24 hours
Description: as §1

[14] = tested on: Liver acetone powder from Porcine; experiment: Hydrolysis of ketoprofen methyl ester by porcine liver acetone powder; settings: Porcine powder 10 mg, 50 mg ester, pH 7.0, room temperature, 24 hours
Description: as §1

[15] = tested on: Liver acetone powder from Guinea Pig; experiment: Hydrolysis of ketoprofen methyl ester by guinea pig liver acetone powder; settings: Guinea Pig powder 10 mg, 50 mg ester, pH 7.0, room temperature, 24 hours
Description: as §1

[16] = tested on: Liver acetone powder from Trout; experiment: Hydrolysis of ketoprofen methyl ester by trout liver acetone powder; settings: Trout powder 10 mg, 50 mg ester, pH 7.0, room temperature, 24 hours
Description: as §1

[17] = tested on: Liver acetone powder from Salmon; experiment: Hydrolysis of ketoprofen methyl ester by salmon liver acetone powder; settings: Salmon powder 10 mg, 50 mg ester, pH 7.0, room temperature, 24 hours
Description: as §1

[18] = Dog powder 10 mg, 50 mg ester, pH 7.0, room temperature, 24 hours
[19] = Dog powder, 0.2 millimole ester, procedure of Example 1
[20] = Calf powder 10 mg, 50 mg ester, pH 7.0, room temperature, 24 hours
[21] = Calf powder, 0.2 millimole ester, procedure of Example 1
[22] = Bovine powder 10 mg, 50 mg ester, pH 7.0, room temperature, 24 hours
[23] = Bovine powder, 0.2 millimole ester, procedure of Example 1
[24] = Pigeon powder 10 mg, 50 mg ester, pH 7.0, room temperature, 24 hours
[25] = Cat powder 10 mg, 50 mg ester, pH 7.0, room temperature, 24 hours
[26] = Horse powder 10 mg, 50 mg ester, pH 7.0, room temperature, 24 hours
[27] = Goat powder 10 mg, 50 mg ester, pH 7.0, room temperature, 24 hours
[28] = Sheep powder 10 mg, 50 mg ester, pH 7.0, room temperature, 24 hours
[29] = Seal powder 10 mg, 50 mg ester, pH 7.0, room temperature, 24 hours
[30] = Mouse powder 10 mg, 50 mg ester, pH 7.0, room temperature, 24 hours

COC(=O)C(C)c1cccc(C(=O)c2ccccc2)c1 (centres unmarked) [Methyl Ester of Ketoprofen, ketoprofen methyl ester]
Percentage of Acid R-acid [1, 18]: 87.1%
Percentage of Acid S-acid [1, 18]: 12.9%
Percentage of acid [1, 18]: 8.0%
Acid Produced (%) [1, 19]: 6.2%
EE(%) of R-Acid [1, 19]: 76.6%
Percent of Acid R-Acid [1, 19]: 88.3%
Percent of Acid S-Acid [1, 19]: 11.7%
Percentage EE of acid (R or S) ([1]; Dog powder, Table 1, higher enantiomer (R)): 74.2%
Percentage of Acid R-acid [2, 20]: 71.6%
Percentage of Acid S-acid [2, 20]: 28.4%
Percentage of acid [2, 20]: 5.7%
Acid Produced (%) [2, 21]: 7.3%
EE(%) of R-Acid [2, 21]: 45.6%
Percent of Acid R-Acid [2, 21]: 72.8%
Percent of Acid S-Acid [2, 21]: 27.2%
Percentage EE of acid (R or S) ([2]; Calf powder, Table 1, higher enantiomer (R)): 43.2%
Percentage of Acid R-acid [3, 22]: 71.2%
Percentage of Acid S-acid [3, 22]: 28.8%
Percentage of acid [3, 22]: 4.3%
Acid Produced (%) [3, 23]: 4.4%
EE(%) of R-Acid [3, 23]: 47.2%
Percent of Acid R-Acid [3, 23]: 73.6%
Percent of Acid S-Acid [3, 23]: 26.4%
Percentage EE of acid (R or S) ([3]; Bovine powder, Table 1, higher enantiomer (R)): 42.4%
Percentage of Acid R-acid [4, 24]: 66.7%
Percentage of Acid S-acid [4, 24]: 33.3%
Percentage of acid [4, 24]: 18.0%
Percentage EE of acid (R or S) ([4]; Pigeon powder, Table 1, higher enantiomer (R)): 33.4%
Percentage of Acid R-acid [5, 25]: 64.1%
Percentage of Acid S-acid [5, 25]: 35.9%
Percentage of acid [5, 25]: 7.2%
Percentage EE of acid (R or S) ([5]; Cat powder, Table 1, higher enantiomer (R)): 28.2%
Percentage of Acid R-acid [6, 26]: 62.7%
Percentage of Acid S-acid [6, 26]: 37.3%
Percentage of acid [6, 26]: 24.1%
Percentage EE of acid (R or S) ([6]; Horse powder, Table 1, higher enantiomer (R)): 25.4%
Percentage of Acid R-acid [7, 27]: 42.3%
Percentage of Acid S-acid [7, 27]: 57.7%
Percentage of acid [7, 27]: 15.5%
Percentage EE of acid (R or S) ([7]; Goat powder, Table 1, higher enantiomer (S)): 15.4%
Percentage of Acid R-acid [8, 28]: 46.5%
Percentage of Acid S-acid [8, 28]: 53.5%
Percentage of acid [8, 28]: 18.1%
Percentage EE of acid (R or S) ([8]; Sheep powder, Table 1, higher enantiomer (S)): 7.0%
Percentage of Acid R-acid [9, 29]: 48.9%
Percentage of Acid S-acid [9, 29]: 51.1%
Percentage of acid [9, 29]: 14.3%
Percentage EE of acid (R or S) ([9]; Seal powder, Table 1, higher enantiomer (S)): 2.2%
Percentage of Acid R-acid [10, 30]: 49.0%
Percentage of Acid S-acid [10, 30]: 51.0%
Percentage of acid [10, 30]: 9.4%
Percentage EE of acid (R or S) ([10]; Mouse powder, Table 1, higher enantiomer (R)): 2.0%
Percentage of acid [11]: 3.2%
Percentage of acid [12]: 3.0%
Percentage of acid [13]: 1.1%
Percentage of acid [14]: 0.9%
Percentage of acid [15]: 0.8%
Percentage of acid [16]: 0.7%
Percentage of acid [17]: 0.6%
